Experimental data as given in a melting point compilation (Tetko et al.; mined from patent text by program, amines drawn as free bases though some values may be those of a salt).

Row | SMILES | melting point [°C]
1 | CCOC(=O)c1c(O)c2ccc(C)nc2n(C)c1=O | 143 to 145
2 | O=C(NCCO)NCCCCC1CCSS1 (stereo unspecified) | 50 to 65
3 | Nc1cccc2c1CN(c1c(F)cc3c(=O)c(C(=O)O)cn(-c4ccc(F)cc4F)c3c1F)C2 | 264 to 266
4 | OC(COc1ccccc1-n1cccc1)CN1CCOCC1 (stereo unspecified) | 81 to 82
5 | COC(=O)C1CC2CCC1N(C(=O)OC(C)(C)C)C2 (stereo unspecified) | 44 to 45
6 | OCCc1coc2c(OC3CCCCO3)cccc12 (stereo unspecified) | 74 to 76
7 | CN(C)Nc1cc(Oc2nn(C)c(C(F)(F)F)c2Cl)ccc1[N+](=O)[O-] | 72 to 76
8 | CN=C(NC#N)N1CCc2nc(N)sc2C1 | 231 to 234
9 | Cc1nnc2c(C(C)Br)ccnn12 (stereo unspecified) | 125 to 128
10 | Sc1ccc(-n2cnnn2)cc1 | 120 to 122
11 | Cc1nn(C)c2c(Cl)ncnc12 | 92 to 95
12 | CCOC(=O)c1cn(C2CC2)c2c(OC(F)F)c(F)c(F)cc2c1=O | 224 to 226
13 | O=c1[nH]ncc(N2CCN(Cc3ccccc3)CC2)c1Cl | 173 to 175
14 | O=C(CC1CSCCC1=O)c1ccc(Cl)cc1 (stereo unspecified) | 78 to 81
15 | O=C(c1ccc(Cl)cc1)c1ccc(N2N=CCNC2=O)cc1Cl | 158 to 159
16 | COCC#Cc1ncn2c1CN(C)C(=O)c1c(Cl)cccc1-2 | 154 to 156
17 | CC(=O)N[C@@H](CCC(=O)O)C(N)=O | 85 to 87
18 | Cc1cccc(-c2nc3cnccc3[nH]2)c1 | 202 to 204
19 | CC(=O)c1cc(F)c(O)c(F)c1 | 141 to 143
20 | Cc1c(C)c2c(c(C)c1O)CCC(C)(CCOc1ccc(CC3SC(=O)NC3=O)cc1)O2 (stereo unspecified) | 152 to 154
21 | CCOC(=O)CCCCC(=O)c1c(C)n(C(=O)OC)c(=O)n1C(=O)OC | 74 to 76
22 | O=C(ON1C(=O)CCC1=O)c1cccnc1 | 129 to 131

Row | SMILES | melting point [°C]
23 | CCOC(=O)c1nc2sc([N+](=O)[O-])c(C)c2c(=O)[nH]1 | 229 to 230
24 | COc1ccc(OC)c(C(=O)Cl)c1 | 36 to 38
25 | COc1cccc2c(=O)c(C#N)c(N)oc12 | 300
26 | CS(=O)(=O)c1ccc2cc[nH]c2c1 | 149 to 152
27 | CON(C)C(=O)c1cc([N+](=O)[O-])c(F)cc1Cl | 89
28 | CCOC(=O)c1cc(F)c(N2CCC(NC(=O)OC(C)(C)C)C2)cc1F (stereo unspecified) | 98 to 100
29 | CC1(C)Oc2ccc(C#N)cc2[C@@H](O)[C@@H]1Br (relative stereo) | 128
30 | CC1CC(=O)NN=C1c1ccc(NCCN)c(N)c1 (stereo unspecified) | 176 to 177
31 | O=CN1CCC(C(c2ccccc2)c2ccccc2)CC1 | 172 to 174
32 | CCCCNc1cccnc1S(=O)(=O)NC(=O)Nc1nc(OC)cc(OC)n1 | 118 to 119
33 | O=C(O)c1cn(C2CC2)c2cc(N3CCC4(C3)OCCO4)c(F)cc2c1=O | 229 to 230
34 | CC(C)(C)OC(=O)N1CCO[C@@H](c2ccc(Br)cc2)C1 | 97.2
35 | CNC(=O)Oc1ccccc1 | 84 to 85
36 | COCCC(=O)N[C@H]1CC[C@H](CCN2CCN(c3nc(C)cc4occc34)CC2)CC1 | 158
37 | CCOC(=O)Nc1cc(N)ccc1F | 88 to 89
38 | COc1cc(C=C2C(=O)CCc3cc(Cl)ccc32)c([N+](=O)[O-])cc1OC | 56 to 58
39 | CC(C)=C1NC(=O)c2ccccc2S1 | 187 to 188
40 | O=C1CCCCCCCCCCCCCCCCC1O (stereo unspecified) | 31 to 32
41 | COc1cccc2c(O)c(C)c(C)nc12 | > 290
42 | Nc1cc(NC(=O)c2cc3cc(C(F)(F)F)ccc3n2Cc2cccc(F)c2)ccn1 | 225 to 226
43 | CC(=O)OC1CCN2C(=O)N(c3ccc(C#N)c4ccccc34)C(=O)C12 (stereo unspecified) | 105
44 | O=C(O)C1CCC(=O)N1Cc1ccccc1C(F)(F)F (stereo unspecified) | 139 to 141

Row | SMILES | melting point [°C]
45 | O=C(O)CCCCCCCCCCCCC(=O)ON1C(=O)CCC1=O | 116 to 118
46 | CCCCN1C(=O)CSC(=NO)C1C (stereo unspecified) | 118 to 120
47 | COc1ccc(Cc2ccc(C(=O)N(C3CCCC3)C3CCCC3)cc2)cc1OC | 138 to 142
48 | Cc1cc(Br)cnc1NCCCNC1=NS(=O)N=C1NCc1ccc(F)cc1 (stereo unspecified) | 125 to 126
49 | COC(=O)c1cc2ccc(C)cc2n1C(C)=O | 51 to 53
50 | Nc1cccc(F)c1O | 115
51 | CNC(=O)C(=NOCF)c1ccccc1OC1CCCCO1 (stereo unspecified) | 81
52 | CCOC(=O)C1=C(C)NC(N)(c2nc(-c3cccc(C(F)(F)F)c3)cs2)N=C1 (stereo unspecified) | 227 to 229
53 | N#Cc1ccccc1C=CCN1CCc2nc(N)sc2CC1 | 140 to 144
54 | O=C(O)Cc1cc([N+](=O)[O-])ccc1Sc1cccc(Br)c1 | 123 to 125
55 | CCCCCCOc1c(F)cc(F)c(C(N)=O)c1F | 89 to 90
56 | Cn1c(=O)c2c(ncn2CCCOS(C)(=O)=O)n(C)c1=O | 112 to 113
57 | O=C(O)CCCCCCCCCCCCCCCCCCCO | 86
58 | CCCCCCCCCc1ccc2c(c1)C1(O)C(=O)c3ccccc3C1(O)O2 (stereo unspecified) | 108 to 110
59 | COc1ccc(Nc2c([N+](=O)[O-])cc([N+](=O)[O-])cc2C(F)(F)F)nc1 | 102 to 105
60 | CCCCn1cc(C(=O)C(=O)O)c2cc(-c3cccc(Cl)c3)ccc21 | 108 to 109
61 | CN(C)C(=O)Sc1ccc(CC#N)cc1 | 97 to 99
62 | Cc1nc2cccc(OCC(C)(C)NC(=O)C3CCOCC3)c2c(N)c1C(=O)O | 170 to 173
63 | CCOCc1nc2cnc3cc(Br)ccc3c2n1CCN1CCN(C(=O)OC(C)(C)C)CC1 | 140 to 143
64 | CN(C)CCN(c1ccc(N)cc1)S(C)(=O)=O | 147 to 148

More lines, now with the values ahead:

Row | melting point [°C] | SMILES
65 | 206 to 208 | COCCc1sc2ncnc(N)c2c1-c1ccc(NS(=O)(=O)c2ccccc2)cc1
66 | 145 to 150 | O=C(O)c1ccccc1C=Cc1cccc(Br)c1
67 | 111 to 112 | O=C(O)CCC(O)c1ccc(-c2ccc(F)cc2F)cc1 (stereo unspecified)
68 | 145 | CC1CCCN1CCCOc1ccc(-c2ccc(S(=O)Cc3ccccc3)nn2)cc1 (stereo unspecified)
69 | 181 to 183 | COCCC1(C(=O)N[C@@H](Cc2ccc(-c3c(C(F)(F)F)cc(C)n(C)c3=O)cc2)C(=O)O)CCCC1
70 | 90 to 92 | Nc1cc2c(cc1C(=O)c1ccccc1Cl)CCC2
71 | 310 to 312 | COc1cccc(C=C2CCc3c2nc2ccc(C(=O)O)cn2c3=O)c1
72 | 230 to 233 | O=[N+]([O-])c1oc2c(ccc3ccccc32)c1-c1ccc(Br)cc1
73 | 202 to 204 | O=C(NC(=O)c1ccc2ncccc2c1)NC1CCN(Cc2ccc3ncccc3c2)CC1
74 | 126 to 128 | COC(=O)c1sc2ccc(OCc3cccnc3)cc2c1Cl
75 | 177 | O=C1c2ccccc2C(=O)N1OCCc1cn(C(c2ccccc2)(c2ccccc2)c2ccccc2)cn1
76 | 274 to 280 | O=C(NCc1c(F)cccc1F)c1[nH]c2ccc(Cl)cc2c1S(=O)(=O)c1ccccc1
77 | 162 | Nc1ccc(-c2cc(C(F)(F)F)nc(-c3ccc(C(F)(F)F)cc3)n2)cc1
78 | 159 to 160 | Nc1cccnc1Nc1cccc(-c2cccnc2)c1
79 | 148 to 149 | Cc1ccc(OCc2c(F)cccc2Cl)c(NC(=N)Nc2ccc(Cl)cc2)n1
80 | 103 | CN(C)c1ccc(C2CCCN2S(=O)(=O)c2ccc(Cl)cc2)cc1Cl (racemic)
81 | 57 | CC(C)CC(Cn1cc(Sc2ccccc2)c2ccccc21)N(O)C(N)=O (stereo unspecified)
82 | 82 | Clc1ccc(C2CN(C(c3ccccc3)c3ccccc3)C2)cc1
83 | 167 to 168 | COCCOCc1c(CO)sc2c(=O)c(C(=O)NCc3ccc(Cl)cc3)cn(C)c12
84 | 182 to 184 | Cc1nc(N2C(=O)N(CCc3ccc(F)cc3)CC2O)sc1C(=O)NCc1cccnc1 (stereo unspecified)
85 | 168 to 170 | O=C(NNS(=O)(=O)c1ccccc1)c1ccc(Cl)cc1Cl

Row | melting point [°C] | SMILES
86 | 172 to 174 | CC(C)n1nc(-c2sc(NC(=O)c3ccc(CN(C)CCc4ccccn4)cc3)nc2-c2ccccc2)ccc1=O
87 | 238 to 239 | Cc1ccc(C(=O)Nc2c(NC(=O)CN3CCN(c4ccccc4C#N)CC3)ccc3c2C(=O)c2ccccc2C3=O)cc1
88 | 160 | CCOC(=O)Cc1nn(CC(=S)Nc2cc(C(F)(F)F)ccc2Br)c(=O)c2ccccc12
89 | 125 to 129 | Oc1ccc(-c2nnc(CCCCCCc3ccccc3)o2)cc1
90 | 149 to 151 | O=C(NC1CSc2ccccc2NC1=O)OCc1ccccc1 (stereo unspecified)
91 | 310 | O=S(=O)(Nc1ccncc1)c1ccc(Br)s1
92 | 228 to 230 | COc1ccc(-c2cc3ccc(OC)cc3[nH]2)cc1
93 | 155 to 157 | O=C(NS(=O)(=O)c1ccc(O)cc1)c1ccc(Cl)cc1Cl
94 | 144 to 146 | CN1CCCC2(CCn3c(c(C4=C(c5cn(C)c6ccccc56)C(=O)NC4=O)c4ccccc43)C2)C1 (stereo unspecified)
95 | 126 to 128 | CNc1nc(C(C)c2ccc(-c3ccccc3)c(F)c2)c(C=O)s1 (stereo unspecified)
96 | 176 to 181 | Cn1cc(-c2ccccc2)c(=O)c(-c2cccc(S(C)(=O)=O)c2)c1
97 | 295 to 300 | CN1CCc2c(c3ccc(-n4ccc(-c5ccc(C(F)(F)F)nc5)cc4=O)cc3n2C)C1
98 | 258 to 259 | N=C(C1=C(O)C(=O)c2ccccc2C1=O)c1ccccc1
99 | 138 to 141 | COc1ccc(C)cc1NC(=O)Nc1ccc(N2CCN(C(=O)Nc3ccc(CO)cc3C)CC2)cc1
100 | 198 to 200 | COC(=O)c1cccc(C2C(C#N)=C(N)Oc3c2ccc2cccnc32)c1 (stereo unspecified)
101 | 77 to 78 | O=C(OCc1ccc(OCCc2ccc(Cl)cc2)cc1)c1cccnc1
102 | 261 to 263 | COc1ccc(-c2nc3cccc(C(N)=O)c3[nH]2)cc1
103 | 180 | N#Cc1ccc(N(Cc2ccc(O)cc2)n2ccnc2)cc1
104 | 239 | COc1cc(Nc2nccc(-c3ccc(NC(C)=O)cc3)n2)cc(OC)c1OC
105 | 136 | CC(C)COc1ccc2sc(-c3ccccn3)nc(=O)c2c1
106 | 165 to 166 | CC1(c2ccccc2)OC(C=Cc2ccncc2)=CC1=O (stereo unspecified)
